# Data from patent US10426775B2, “Methods for treating Friedreich's ataxia with etravirine” (Fratagene Therapeutics srl, priority 2017, dated 2019).
# Residues, ends and D or L forms follow the SMILES beside them. *: point of attachment. Cbz = O=C(OCc1ccccc1)*
# Key:
# frataxin-ProLabel fusion = assay: frataxin-ProLabel cell-based reporter assay (β-galactosidase enzyme fragment complementation), library screening; design: species or system human; settings: frataxin-ProLabel transfected cells treated with MG132
# Description: The FDA-approved drug library (SELLECKCHEM SCREENING LIBRARIES®) that was used in the screening was composed of 853 drugs. The library was provided in a total of ten 96-well plate, with the drugs at a stock concentration of 10 mM in dimethyl sulfoxide (DMSO). To evaluate the effect of drugs on frataxin abundance, we generated a fusion construct between frataxin and ProLabel that was used as a reporter in a cell-based assay. The system is based on […] enzyme fragment complementation (Eglen, 2002). […] Indeed, treatment of frataxin-ProLabel transfected cells with MG132 promotes frataxin accumulation, which results in a 5-fold increase in the intensity of the luminescence signal. […]
# For the screening, HEK-293 cells were transiently transfected with pCMV-fxn-ProLabel. […] After 24 hours, the complementary β-galactosidase subunit and the substrate were added and chemiluminescence emission was measured by luminometer reading. […] The chemiluminescent signal was monitored over a period of 210 minutes. […]
# To analyse the FDA-approved drug screening results, an arbitrary threshold was established for each plate as the average of the luminescence measured in all the wells of the plate plus 2 standard deviations. Luminescence signal from each well was then normalized on threshold value. […]
# [1] = tested on: newly synthesized frataxin mRNA; assay: Nascent frataxin transcripts (EU metabolic labeling, Click-iT capture, real-time PCR) in HEK293-fxn; format: cell-based, human; settings: 10 μM, 4 or 8 hours
# Source text: We then investigated whether the observed increase in frataxin protein levels is due to an upregulation of the frataxin mRNA, either promoted by an increase in the […] rate of frataxin mRNA or by its stabilization. To understand whether etravirine promotes de novo synthesis of frataxin mRNA, we metabolically labeled nascent transcripts through the incorporation of 5-ethynyl uridine (EU). Through a click chemistry-based reaction, biotin was then conjugated to EU-labelled transcripts, thus allowing selective isolation and analysis of newly synthesized mRNA. We therefore quantitatively analyzed the relative amount of newly synthesized frataxin mRNA in etravirine-treated HEK293-fxn cells, compared to untreated control cells. […] We then analyzed the effect of etravirine on the decay of frataxin transcript observed upon treatment with actinomycin. HEK293-fxn cells were treated with actinomycin for 4, 8 or 12 hours in the presence or absence of etravirine and frataxin mRNA was quantitated by RT-PCR.
# HEK 293-fxn stably expressing frataxin (A), HEK 293 (B), or FRDA lymphoblast cell line GM16203 (C) were treated with 10 μM etravirine for the indicated time points. Protein extracts were resolved on SDS-PAGE and analyzed by western blot with anti-frataxin antibody and anti-tubulin as a loading control. Etr: etravirine; tub: tubulin; fxn pre: frataxin precursor. […]
Structure (SMILES),increase in the intensity of the luminescence signal (frataxin-ProLabel fusion) [fold],relative amount of newly synthesized frataxin mRNA vs untreated control cells [1]
CC(C)C[C@@H](C=O)NC(=O)[C@H](CC(C)C)NC(=O)[C@H](CC(C)C)NC(=O)OCc1ccccc1 [MG132] (Cbz-Leu-Leu-Leu-aldehyde),5,–
O=C(CCCCCCC(=O)Nc1ccccc1)NO [Vorinostat],–,significantly upregulates
